Assay results from patent US20260102451A1, “RUMINANT METHANE PRODUCTION INHIBITOR” (SDS BIOTECH K.K., priority 2022, published 2026).

Key:
Assay type in all cases: cell-based, Holstein milking cows
rumen fluid culture [1] = assay: Methane production measurement system using rumen culture (Example 3); conditions: for methane amount (mean ± SD): 39° C., 17 hours; for methane amount % reduction vs cont: ^ = increase
Method: Cashew nut shell liquid (CNSL) cold-pressed and extracted from cashew nut shells was obtained. For culture inoculum, rumen fluids (filtrates through quadruple gauzes) collected orally from Holstein milking cows 90 days or longer after calving were used. 4 mL of the rumen fluid and 6 mL of artificial saliva (McDougal's artificial saliva) were added and the mixture was used for culturing. […] CNSL was dissolved in ethanol and added to a Hungate tube such that it had any concentration in the solution. […] To equalize the effect of ethanol, only ethanol was added to a no-addition (control) area. […] To these test tubes, a total of 10 mL of diluted rumen fluid and artificial saliva in the above mixture ratio was added, and the tubes were incubated anaerobically in an incubator (39° C., 17 hours) with butyl rubber caps and plastic screw caps provided while nitrogen gas was blown into the head space. Each culturing was performed in triplicate. The concentrations of methane and acetic acid in volatile fatty acids were both analyzed by FID gas chromatography.

rumen fluid culture [2] = assay: Methane production measurement system using rumen culture (Example 1); conditions: for methane amount (mean ± SD): 39° C., 17 hours
Method: Cashew nut shell liquid (CNSL) cold-pressed and extracted from cashew nut shells was obtained. For culture inoculum, rumen fluids (filtrates through quadruple gauzes) collected orally from Holstein milking cows 90 days or longer after calving were used. 4 mL of the rumen fluid and 6 mL of artificial saliva (McDougal's artificial saliva) were added, and the mixture was used for culturing. […] Similarly, DL-malic acid and fumaric acid were dissolved in ethanol and added such that they had desired concentrations in the solution. To equalize the effect of ethanol, only ethanol was added to a no-addition (control) area. Thereafter, the resulting products were left for several hours to vaporize ethanol, to which 50 mg of corn starch, 75 mg of concentrate feed powder, and 75 mg of timothy hay powder were added as culture substrates. […] To these test tubes, a total of 10 ml of diluted rumen fluid and artificial saliva in the above mixture ratio was added, and the tubes were incubated anaerobically in an incubator (39° C., 17 hours) with butyl rubber caps and plastic screw caps provided while nitrogen gas was blown into the head space. Each culturing was performed in triplicate. The concentrations of methane and acetic acid in volatile fatty acids were both analyzed by FID gas chromatography.

rumen fluid culture [3] = assay: Methane production measurement system using rumen culture (Example 2); conditions: for methane amount (mean ± SD): 39° C., 17 hours
Method: Cashew nut shell liquid (CNSL) cold-pressed and extracted from cashew nut shells was obtained. For culture inoculum, rumen fluids (filtrates through quadruple gauzes) collected orally from Holstein milking cows 90 days or longer after calving were used. 4 mL of the rumen fluid and 6 mL of artificial saliva (McDougal's artificial saliva) were added and the mixture was used for culturing. […] CNSL was dissolved in ethanol and added to a Hungate tube such that it had any concentration in the solution. […] To equalize the effect of ethanol, only ethanol was added to a no-addition (control) area. Thereafter, the resulting products were left for several hours to vaporize ethanol, to which 50 mg of corn starch, 75 mg of concentrate feed powder, and 75 mg of timothy hay powder were added as culture substrates. To these test tubes, a total of 10 ml of diluted rumen fluid and artificial saliva in the above mixture ratio was added, and the tubes were incubated anaerobically in an incubator (39° C., 17 hours) with butyl rubber caps and plastic screw caps provided while nitrogen gas was blown into the head space. Each culturing was performed in triplicate. The concentrations of methane and acetic acid in volatile fatty acids were both analyzed by FID gas chromatography.

[4] = 1000 mg/L alone, ▴ = reduction, ^ = increase

SMILES | acetate amount % vs cont (rumen fluid culture [1]; 500 mg/L alone) | acetate amount (mean ± SD) (rumen fluid culture [1]; 500 mg/L alone) | methane amount (mean ± SD) (rumen fluid culture [1]; 500 mg/L alone) | acetate amount % vs cont (rumen fluid culture [1]; 1000 mg/L alone) | acetate amount (mean ± SD) (rumen fluid culture [1]; 1000 mg/L alone) | methane amount (mean ± SD) (rumen fluid culture [1]; 1000 mg/L alone) | acetate amount % vs cont (rumen fluid culture [1]; 2000 mg/L alone) | acetate amount (mean ± SD) (rumen fluid culture [1]; 2000 mg/L alone) | methane amount (mean ± SD) (rumen fluid culture [1]; 2000 mg/L alone) | methane amount % reduction vs cont (rumen fluid culture [1]; 2000 mg/L alone) | acetate amount % vs cont (rumen fluid culture [2]; 500 mg/L alone) | acetate amount (mean ± SD) (rumen fluid culture [2]; 500 mg/L alone) | methane amount (mean ± SD) (rumen fluid culture [2]; 500 mg/L alone) | acetate amount % vs cont (rumen fluid culture [3]; 500 mg/L alone) | acetate amount (mean ± SD) (rumen fluid culture [3]; 500 mg/L alone) | methane amount (mean ± SD) (rumen fluid culture [3]; 500 mg/L alone) | acetate amount % vs cont (rumen fluid culture [3]; 1000 mg/L alone) | acetate amount (mean ± SD) (rumen fluid culture [3]; 1000 mg/L alone) | methane amount (mean ± SD) (rumen fluid culture [3]; 1000 mg/L alone) | also measured
O=C(O)CC(O)C(=O)O (racemic) [DL-malic acid] | 114% | 4.18 ± 0.07 g/L | 6.13 ± 0.92 mL/tube | 102% | 3.76 ± 0.27 g/L | 6.13 ± 0.00 mL/tube | 105% | 3.85 ± 0.38 g/L | 5.95 ± 0.70 mL/tube | ▴3% | 123% | 4.18 ± 0.11 g/L | 6.22 ± 0.93 mL/tube | – | – | – | – | – | – | acetate amount % vs cont (rumen fluid culture [2]; 1000 mg/L alone): 111%; acetate amount (mean ± SD) (rumen fluid culture [2]; 1000 mg/L alone): 3.76 ± 0.11 g/L; methane amount (mean ± SD) (rumen fluid culture [2]; 1000 mg/L alone): 5.47 ± 0.01 mL/tube; methane amount % reduction vs cont (rumen fluid culture [2]; [4]): ▴0%; improvement in the methane reduction rate (rumen fluid culture [2]; CNSL and garlic powder in combination, 500 to 1,000 mg/L DL-malic acid alone, 100 to 200 mg/L garlic powder): did not show significant improvement
O=C(O)CC(O)(CC(=O)O)C(=O)O [citric acid] | 99% | 3.64 ± 0.70 g/L | 6.53 ± 0.43 mL/tube | 102% | 3.76 ± 1.10 g/L | 6.41 ± 1.49 mL/tube | 128% | 4.71 ± 0.15 g/L | 5.45 ± 2.09 mL/tube | ▴11% | – | – | – | 115% | 4.25 ± 0.16 g/L | 5.12 ± 0.67 mL/tube | 119% | 4.42 ± 0.14 g/L | 3.77 ± 1.64 mL/tube | methane amount % reduction vs cont (rumen fluid culture [3]; [4]): ▴21%
O=C(O)/C=C/C(=O)O [fumaric acid] | – | – | – | – | – | – | – | – | – | – | 114% | 3.86 ± 0.12 g/L | 5.94 ± 0.01 mL/tube | – | – | – | – | – | – | –
CC(=O)C(=O)O [pyruvic acid] | – | – | – | – | – | – | – | – | – | – | – | – | – | 109% | 4.04 ± 0.31 g/L | 5.58 ± 1.26 mL/tube | 118% | 4.36 ± 0.02 g/L | 5.39 ± 0.04 mL/tube | –
O=C(O)CCC(=O)O [succinic acid] | – | – | – | – | – | – | – | – | – | – | – | – | – | 115% | 4.26 ± 0.42 g/L | 5.28 ± 1.76 mL/tube | 106% | 3.91 ± 0.58 g/L | 6.24 ± 0.83 mL/tube | –
